Tests used:
[1] = ionizing side chain of the amino acid residue; cited from earlier work
[2] = cited from earlier work; for absorption after oral administration: gastrointestinal tract
[3] = system: dermatitis and fungal infection of the toe nail; settings: 50% acetic acid, brief periods of application
Protocol: Ammoniated butyric acid is […]. […] The acetic acid represents the deaminated glycine in this subject composition can be applied one to seven days per week and can be applied multiple times in one day. The duration of application can range from 2 to 60 minutes (or any other chosen interval) per application.

breast cancer cells = assay: Breast cancer cell suspension in vitro treated with polysorbate 80; format: cell-based
Text: Parkinson's disease also has an abnormal protein alpha synuculein intracytoplasmic aggregate/inclusion. Lewy bodies instead of normal random coil repeat proteins structures, cancer with deficiency in HLB modulation and adequate surfactant required by DNA progress through normal rheologic flow required in mitosis with normal cellular and nuclear division and sharing of DNA genetic traits and the resultant formation of normal daughter cells. The darkly stained nuclear mitotic figures makes its appearance as an aggregate plaque or precipitate removed from the normal flow of nuclear function and the microcirculation of nuclear DNA genetic nuclear focus and originating cell division. Response to hydrophilic surfactant in vitro is supportive of this thesis (83 percent of the breast cancer cells were killed in 24 to 48 hours with exposure to 0.25 percent polysorbate 80, Tween 80). Again countering the poor solubility of the plaque-like mechanism disease which contributes to metabolization and the normal metabolic turnover of all cell tissue and organs brings about a disease-free therapeutic response. About one-third of these cancers are associated with inflammatory immunologic response T lymphocytic-plasma cell changes and are of poor prognosis. Response to HLB modulation towards a hydrophilic HLB has provided an 83 percent in-vitro encouraging response reported in other embodiment.
Successful anticancer therapeutic activity cancer tissue cell in vitro′ breast cancer cell suspension comparative trials with treatment with 0.25 percent to 0.5 percent polysorbate 80 (Mean 80) with 83 percent reduction in 24 to 48 hours of cancer cell mitochondrial activity after HLB modulation with tween 80, and 50 percent reduction in cancer cells' abnormal morphology and abnormal mitosis on cytopathologic review.

[4] = system: pediatric liver transplant recipients; settings: of 64 pediatric liver transplant recipients; cited from earlier work
[5] = uric acid crystals; cited from earlier work

For `N=C(N)NCCC[C@H](N)C(=O)O` [Arg, arginine], which ΔH [1] is on record?
Its ΔH is 11.6 to 13 kcal/mol.

With `N[C@@H](CC(=O)O)C(=O)O` [Asp, aspartic acid] as the compound, how does the “pK of side chain” value [1] read?
Its value is 4.2-4.5.

With `N[C@@H](CS)C(=O)O` [Cys, cysteine] as the compound, how does the “pK of side chain” value [1] read?
The value was 7.5-8.5.

For `N[C@@H](CCC(=O)O)C(=O)O` [Glu, glutamic acid], which “pK of side chain” value [1] is on record?
Its value is 4.3-4.6.

For `N[C@@H](Cc1c[nH]cn1)C(=O)O` [His, histidine], which “pK of side chain” value [1] is on record?
Its value is 6.2-6.5.

What about the ΔH [1] of the same compound?
The ΔH was 6.93 to 7.53 kcal/mol.

With `COc1ccc2c(c1)c(CC(=O)O)c(C)n2C(=O)c1ccc(Cl)cc1` [Indomethacin] as the compound, how does the “steady-state concentrations in plasma” value ([2]; after long-term administration) read?
The value was “approximately 0.5 micrograms/ml”.

What about the “time to peak concentration in plasma” value ([2]; fasting subject, oral) of the same compound?
Its value is no more than 2 h.

And the “absorption after oral administration” value [2]?
The value was “rapidly and almost completely absorbed”.

What about the “bound to plasma proteins” value ([2]; in vivo) of the same compound?
Its value is 90%.

And the “converted by O-demethylation” value ([2]; inactive metabolites)?
Its value is “about 50%”.

And the “converted by conjugation with glucuronic acid” value ([2]; inactive metabolites)?
The value was “about 10%”.

And the “concentrations in plasma required for an anti-inflammatory effect” value ([2]; not definitely determined)?
The value was “less than 1 microgram per ml”.

With `NCCCC[C@H](N)C(=O)O` [Lys, lysine] as the compound, how does the “pK of side chain” value [1] read?
The value was 9.8-10.4.

What about the ΔH [1] of the same compound?
The ΔH was 10 to 11.6 kcal/mol.

With `O=C(O)c1cc(/N=N/c2ccc(S(=O)(=O)Nc3ccccn3)cc2)ccc1O` [Sulfasalazine, salicylazosulfapyridine] as the compound, how does the “absorption after oral administration” value [2] read?
Its value is “poorly absorbed”.

Which “effect on dermatitis and fungal toe nail infection” value [3] does the source give for `CC(=O)O` [acetic acid] here?
Its value is “dramatically reverse long-term dermatitis and, fungal infection of the toe nail”.

For `CCCCCCCC/C=C\CCCCCCCC(=O)OCCOCC(OCCO)C1OCC(OCCO)C1OCCO` (stereo not drawn) [polysorbate 80], which “breast cancer cells killed” value (breast cancer cells; 0.25 percent polysorbate 80, 24 to 48 hours) is on record?
The value was 83%.

And the “reduction in cancer cells' abnormal morphology and abnormal mitosis on cytopathologic review” value (breast cancer cells; 0.25 percent to 0.5 percent polysorbate 80)?
The value was 50%.

What about the “reduction of cancer cell mitochondrial activity” value (breast cancer cells; 0.25 percent to 0.5 percent polysorbate 80, 24 to 48 hours) of the same compound?
Its value is 83%.

Which results are given for `C=CC[C@@H]1/C=C(\C)C[C@H](C)C[C@H](OC)[C@H]2O[C@@](O)(C(=O)C(=O)N3CCCC[C@H]3C(=O)O[C@H](/C(C)=C/[C@@H]3CC[C@@H](O)[C@H](OC)C3)[C@H](C)[C@@H](O)CC1=O)[C@H](C)C[C@@H]2OC` [tacrolimus]?
patients who experienced food allergies [4]: 17%; patients who experienced food allergies (number) [4]: 11

Which results are given for `O=c1[nH]c(=O)c2[nH]c(=O)[nH]c2[nH]1` [uric acid]?
solubility in glycerine [5]: very soluble; solubility in water [5]: marked insolubility

From patent publication US9283269B2, “Method for reducing the allergenicity of animal dander” (IMMUNOPATH PROFILE, INC., priority 1998, dated 2016)
